Measured values as given in patent US11667630B2, “Nitrogen-containing 6-membered cyclic compound” (Asahi Kasei Pharma Corporation, priority 2017, dated 2023).

Tests used:
human EP4 receptor [1] = molecular target: T1, human EP4 receptor (Homo sapiens, UniProt P35408); assay: Measurement of EP4 agonist activity (cAMP production); format: cell-based; parameters: expressed in transfected cells; host or cells: HEK293; settings: cAMP production in HEK293 cells stably expressing human EP4 receptor; average values where measured two or more times
Protocol: In order to investigate EP4 receptor agonist activity of the compounds of the present invention, production of cAMP was measured in HEK293 cells that were made to stably express the human EP4 receptor.
By using Refseq Database, prostaglandin E receptor was searched for. As a result, gene information of human EP4 (NM_000958) receptor was obtained. On the basis of this sequence information, the human EP4 receptor gene was cloned by PCR in a conventional manner using human cDNA as the template, and HEK293 cells that were made to stably express the human EP4 receptor were established. When cryopreserved cells of this strain were thawed and used, cells subcultured three times or more within a certain period of time (about 1 to 2 weeks) by using Dulbecco's Modified Eagle's Medium (Dulbecco's Modified Eagle's Medium may be henceforth abbreviated as DMEM) containing 10% FBS, 50 units each of penicillin and streptomycin were used. The subcultured cells were inoculated in wells of a poly-D-lysine-coated 96-well plate at a density of 2×10^4 to 2.5×10^4 cells/well, and cultured for one day. The medium in the wells was removed by suction, then DMEM (80 μL) was added to each well, and incubation was performed at 37° C. for 15 minutes. […] The reaction was allowed at 37° C. for 30 minutes, then the medium was removed by suction, Assay/Lysis Buffer (100 μL) contained in cAMP Screen Kit (produced by Applied Biosystems) was added to terminate the reaction. Then, the reaction mixture was incubated at 37° C. for 30 minutes to prepare a sample for quantification of cAMP, and the amount of cAMP in the sample was quantified according to the method indicated in cAMP Screen Kit. By non-linear regression of the compound concentration and the amount of cAMP, the concentration of the compound required for increasing cAMP to 50% of the maximum increase (EC50 value) was calculated by using the Kaleida Graph.

rat femur = assay: Neo-osteogenesis action in rat femur; format: in vivo; settings: female SD rats, one week after administration; for Bone mineral content of femur 1/3 center region (mg) Left femur (administered with compound): 100 μg test compound in in situ-solidified gel solution injected between quadriceps and periosteum; for Bone mineral content of femur 1/3 center region (mg) Right femur (no administration of compound): contralateral femur, 100 μg test compound given at left femur
Protocol: Eight weeks old female SD rats (Charles River Japan) were fixed in the side lying position under triple anesthesia (medetomidine hydrochloride, midazolam, and butorphanol tartrate). After hair of the left femoral region was shaved with a hair clipper, and disinfection treatment was performed with 70% ethanol, an in situ-solidified gel solution of a test compound, specifically, a test compound dissolved in poly(lactic-co-glycolic acid) (RESOMER RG502H, produced by Evonik Industries)/poly(lactic-co-glycolic acid)-polyethylene glycol block copolymer (5050 DLG mPEG 5000, produced by Lakeshore Biomaterials)/N-methyl-2-pyrroridone (produced by Wako) (weight ratio 47%/3%/50%), was filled in a 1-mL syringe, a 21G injection needle was attached to the syringe, and the needle was transdermally stabbed from the quadriceps to the periosteum near the center of the femoral diaphyseal. Then, 100 μg as the amount of the test compound, or 50 μL as the administration volume of the solution was injected between the quadriceps and the periosteum, and the injection needle was drawn out. To the rats of the control group, the aforementioned in situ-solidified gel solution alone was administered. One week after the administration of the drug solution, the triple anesthesia was given to the animals, and they were fixed in the supine position, and euthanized by bleeding. […], circumferential tissues such as muscles were removed, the bone mineral content of the whole femur was measured by using a bone mineral analyzer DCS-600EX (produced by ALOKA), then it was divided into three portions along the long axis, and the bone mineral content of the center part (diaphysis) was evaluated. The test was performed with the groups each consisting of 6 animals.

human EP4 receptor [2] = molecular target: T1, human EP4 receptor; assay: Receptor binding test, [3H]PGE2 binding inhibition, EP4; parameters: purchased Merck Millipore HTS142M; settings: [3H]PGE2 1.24 nmol/L, membrane fraction HTS142M, 25°C 60 minutes
Protocol: (§1) In order to evaluate selectivity to each EP receptor subtype, [^3H]PGE2 binding-inhibition activities of test compounds for cell membranes on which human EP2, human EP3, and human EP4 receptors were stably expressed were measured.
(§2) As the membrane fractions of the prostaglandin E receptors EP2, EP3, and EP4, 10.0 μg protein/tube each of HTS185M, HTS092M, and HTS142M of Merck Millipore were used, respectively. Each membrane fraction was incubated with a reaction mixture (250 μL/tube) containing a test compound and [3H]PGE2 at 25° C. for 60 minutes. […] After the reaction, the membrane fraction was collected on filter paper by using a cell harvester, the filter paper was transferred to a measurement vial, and the measurement was performed on a liquid scintillation counter.
(§3) The nonspecific binding was determined as binding observed in the presence of excess amount (10 μM) of unlabeled PGE2. The measurement of the [3H]PGE2 binding-inhibiting activity of a test compound was performed by adding the test compound at various concentrations. The following buffers were used for the reaction.
Buffer for EP4: 50 mmol/L HEPES-NaOH (pH7.4) containing 5 mmol/L MgCl2, 1 mmol/L CaCl2), and 0.2% BSA

human EP3 receptor = molecular target: T2, human EP3 receptor (Homo sapiens, UniProt P43115); assay: Receptor binding test, [3H]PGE2 binding inhibition, EP3; settings: [3H]PGE2 1.54 nmol/L, membrane fraction HTS092M, 25°C 60 minutes
T2 construct: purchased Merck Millipore HTS092M
T2 sequence (P43115 1-390): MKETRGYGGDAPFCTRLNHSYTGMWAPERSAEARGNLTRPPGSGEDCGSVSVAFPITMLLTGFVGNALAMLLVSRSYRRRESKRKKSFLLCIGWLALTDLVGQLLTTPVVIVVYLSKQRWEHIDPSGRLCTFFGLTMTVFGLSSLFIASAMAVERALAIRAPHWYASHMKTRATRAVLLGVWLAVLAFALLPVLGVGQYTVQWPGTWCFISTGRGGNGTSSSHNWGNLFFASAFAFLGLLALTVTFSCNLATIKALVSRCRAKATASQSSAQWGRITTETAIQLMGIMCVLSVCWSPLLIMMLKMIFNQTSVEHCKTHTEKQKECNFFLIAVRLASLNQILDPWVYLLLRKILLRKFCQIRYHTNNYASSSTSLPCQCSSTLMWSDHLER
Protocol: as §1, §2, §3
Buffer for EP3: 50 mmol/L Tris-HCl buffer containing 10 mmol/L MgCl2, and 1 mmol/L EDTA

human EP2 receptor = molecular target: T3, human EP2 receptor (Homo sapiens, UniProt P43116); assay: Receptor binding test, [3H]PGE2 binding inhibition, EP2; settings: [3H]PGE2 2.56 nmol/L, membrane fraction HTS185M, 25°C 60 minutes
T3 construct: purchased Merck Millipore HTS185M
Protocol: as §1, §2, §3
Buffer for EP2: 50 mmol/L HEPES-NaOH (pH 7.4) containing 5 mmol/L MgCl2, 1 mmol/L CaCl2), and 0.2% BSA

T1 sequence (P35408 whole entry): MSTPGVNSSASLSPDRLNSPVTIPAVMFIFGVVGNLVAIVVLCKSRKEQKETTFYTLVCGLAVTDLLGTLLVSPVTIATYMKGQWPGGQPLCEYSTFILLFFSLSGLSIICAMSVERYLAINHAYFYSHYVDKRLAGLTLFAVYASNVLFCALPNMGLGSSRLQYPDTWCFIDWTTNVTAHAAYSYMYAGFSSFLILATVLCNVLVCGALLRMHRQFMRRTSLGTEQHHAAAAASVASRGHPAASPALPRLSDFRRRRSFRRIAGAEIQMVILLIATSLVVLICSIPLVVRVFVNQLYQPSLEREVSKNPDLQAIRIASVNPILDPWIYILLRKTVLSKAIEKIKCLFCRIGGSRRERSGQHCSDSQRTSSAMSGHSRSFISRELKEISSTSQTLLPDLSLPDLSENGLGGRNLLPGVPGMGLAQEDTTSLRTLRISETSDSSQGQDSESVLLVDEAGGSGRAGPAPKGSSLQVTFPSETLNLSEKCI
T3 sequence (P43116 whole entry): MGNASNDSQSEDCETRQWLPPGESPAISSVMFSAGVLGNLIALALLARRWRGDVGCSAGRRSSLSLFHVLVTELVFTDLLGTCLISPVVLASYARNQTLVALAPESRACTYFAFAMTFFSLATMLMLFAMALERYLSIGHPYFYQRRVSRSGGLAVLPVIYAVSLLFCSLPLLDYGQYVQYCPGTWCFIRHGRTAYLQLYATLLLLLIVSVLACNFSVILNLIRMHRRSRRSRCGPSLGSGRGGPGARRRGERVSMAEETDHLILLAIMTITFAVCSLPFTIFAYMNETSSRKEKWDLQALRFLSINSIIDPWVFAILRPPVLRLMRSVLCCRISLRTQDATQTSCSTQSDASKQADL

Compound	EC50 (human EP4 receptor [1]) [nM]	IC50 (human EP4 receptor [2]) [nM]	IC50 (human EP3 receptor) [nM]	IC50 (human EP2 receptor) [nM]	Bone mineral content of femur 1/3 center region (mg) Left femur (administered with compound) (rat femur) [mg]	Bone mineral content of femur 1/3 center region (mg) Right femur (no administration of compound) (rat femur) [mg]
O=C(O)c1ccc(CCN2C(=O)SCCN2CCC(O)Cc2cccc(C#Cc3ccoc3)c2)s1 (stereo not drawn) [Example 10, 5-(2-(4-(4-(3-(Furan-3-ylethynyl)phenyl)-3-hydroxybutyl)-2-oxo-1,3,4-thiadiazinan-3-yl)ethyl)thiophene-2-carboxylic acid]	0.065				78.0 ± 1.5	61.1 ± 0.5
Cc1cc(C#Cc2ccsc2)cc(CC(O)CCN2CCSC(=O)N2CCc2ccc(C(=O)O)s2)c1 (stereo not drawn) [Example 19, 5-(2-(4-(3-Hydroxy-4-(3-methyl-5-(thiophen-3-ylethynyl)phenyl)butyl)-2-oxo-1,3,4-thiadiazinan-3-yl)ethyl)thiophene-2-carboxylic acid]	0.1				85.8 ± 2.3	59.6 ± 1.4
O=C(O)c1ccc(CCN2C(=O)SCCN2CC[C@@H](O)Cc2cccc(C#Cc3ccoc3)c2)s1 [Example 26, (S)-5-(2-(4-(4-(3-(Furan-3-ylethynyl)phenyl)-3-hydroxybutyl)-2-oxo-1,3,4-thiadiazinan-3-yl)ethyl)thiophene-2-carboxylic acid]	0.17	16.2	> 1000	> 1000	87.0 ± 1.6	65.9 ± 1.2

More lines, main results first:

EC50 (human EP4 receptor [1]) [nM]	IC50 (human EP4 receptor [2]) [nM]	IC50 (human EP3 receptor) [nM]	IC50 (human EP2 receptor) [nM]	Compound	Bone mineral content of femur 1/3 center region (mg) Left femur (administered with compound) (rat femur) [mg]	Bone mineral content of femur 1/3 center region (mg) Right femur (no administration of compound) (rat femur) [mg]
0.34				O=C(O)c1ccc(CCN2C(=O)SCCN2CCC(O)Cc2cccc(C#Cc3nccs3)c2)s1 (stereo not drawn) [Example 13, 5-(2-(4-(3-Hydroxy-4-(3-(thiazol-2-ylethynyl)phenyl)butyl)-2-oxo-1,3,4-thiadiazinan-3-yl)ethyl)thiophene-2-carboxylic acid]	82.0 ± 3.4	65.5 ± 2.7
0.07				O=C(O)c1ccc(CCN2C(=O)SCCN2CCC(O)Cc2ccc(F)c(C#Cc3ccsc3)c2)s1 (stereo not drawn) [Example 20, 5-(2-(4-(4-(4-Fluoro-3-(thiophen-3-ylethynyl)phenyl)-3-hydroxybutyl)-2-oxo-1,3,4-thiadiazinan-3-yl)ethyl)thiophene-2-carboxylic acid]	79.4 ± 5.2	58.7 ± 3.6
0.055				O=C(O)c1ccc(CCN2C(=O)SCCN2CCC(O)Cc2cc(C#Cc3ccsc3)cs2)s1 (stereo not drawn) [Example 22, 5-(2-(4-(3-Hydroxy-4-(4-(thiophen-3-ylethynyl)thiophen-2-yl)butyl)-2-oxo-1,3,4-thiadiazinan-3-yl)ethyl)thiophene-2-carboxylic acid]	79.5 ± 1.9	60.3 ± 2.7
0.095	10.9	> 1000	> 1000	O=C(O)c1ccc(CCN2C(=O)SCCN2CC[C@@H](O)Cc2cccc(C#Cc3cscn3)c2)s1 [Example 25, (S)-5-(2-(4-(3-Hydroxy-4-(3-(thiazol-4-ylethynyl)phenyl)butyl)-2-oxo-1,3,4-thiadiazinan-3-yl)ethyl)thiophene-2-carboxylic acid]	79.1 ± 4.0	61.0 ± 2.1
